Structures can show the parent of a compound that is named as a salt.
These compounds were tested against human αvβ3 receptor (Homo sapiens, UniProt P05106+P06756) (assay: Kistrin/Vitronectin Receptor (αvβ3) ELISA test). Settings: Kistrin-coated plates, co-incubated 3 hours at ambient temperature, 4B12-HRP antibody, OD 450 nm, read-out: K/VnR IC50.
Type: binding
Experimental: Kistrin/Vitronectin Receptor (αvβ3) ELISA Test
96-well MaxiSorp planes are coated overnight at […] with 100 μl of Kistrin at 1 μg/ml (dilution in a coating buffer: carbonate 0.05 M/NaOH pH 9.6). The next day, the wells are emptied and the ligands (kistrin) are then fixed (fixing buffers: PBS containing 0.5% BSA (pH=7.4)) for 1 hour at ambient temperature with gentle agitation at 125 rpm. The wells are washed six times (washing buffer: PBS containing 0.05% of Tween 20 (pH 7.7) then the following are added per well and in this order: • 40 μl of incubation buffer • 10 μl of the dilution of the product to be tested (the products are diluted in a 50:50 mixture DMSO/Water) • 50 μl of human αvβ3 receptor (cf Pytella et al. Methods Enzymol. (1987) 144 (Dilution in incubation buffer, to be adapted according to the receptor batch and according to the ligand). The ligand, the αvβ3 receptor and the products to be studied are co-incubated for 3 hours at ambient temperature with gentle agitation at 125 rpm.
The wells are again washed six times, then incubated for 2 hours at ambient temperature with gentle agitation at 125 rpm, in the presence of 100 μl of anti-receptor antibody conjugated to a peroxidase (The 4B12-HRP antibody is diluted in an incubation buffer (50 mM TRIS pH 7.4; 0.5% BSA; 0.05% Tween 20; 1 mM MnCl2; 50 μM CaCl2; 50 μM MgCl2; 100 mM NaCl) The dilution is adapted according to the receptor batch.
The wells are then washed six times before measuring the ligand-receptor bond carried out using a peroxidase developer kit (TBM Microwell Peroxidase Substrate System Kirkegaard; Cat. Ref. 50-76-00).
This kit contains a bottle A of substrate (3,3′,5,5′-tetramethylebenzidine at 0.4 g/l) and a bottle B (H2O2 at 0.02% in a Citrate/Citric acid buffer). Extemporaneously, a volume of A is mixed with a volume of B, then the reaction mixture is distributed at a rate of 100 μl/well.
The enzymatic reaction develops between 6 and 10 minutes for Kistrin/αvβ3 then its evolution is stopped by the addition of 100 μl of 1M phosphoric acid. The optical density is determined at 450 nm.
Expression of the Results
The following curve is plotted: the bond percentage as a function of the logarithm of each concentration of the tested product.
For each product, the IC50 is determined according to the following formula: IC50=(B0+Bmin)/2 • B0=Maximum bond in the absence of any product • Bmin =Minimum bond in the presence of the highest concentration of the product.

Sequence of human αvβ3 receptor (P06756 31-889 limits assumed): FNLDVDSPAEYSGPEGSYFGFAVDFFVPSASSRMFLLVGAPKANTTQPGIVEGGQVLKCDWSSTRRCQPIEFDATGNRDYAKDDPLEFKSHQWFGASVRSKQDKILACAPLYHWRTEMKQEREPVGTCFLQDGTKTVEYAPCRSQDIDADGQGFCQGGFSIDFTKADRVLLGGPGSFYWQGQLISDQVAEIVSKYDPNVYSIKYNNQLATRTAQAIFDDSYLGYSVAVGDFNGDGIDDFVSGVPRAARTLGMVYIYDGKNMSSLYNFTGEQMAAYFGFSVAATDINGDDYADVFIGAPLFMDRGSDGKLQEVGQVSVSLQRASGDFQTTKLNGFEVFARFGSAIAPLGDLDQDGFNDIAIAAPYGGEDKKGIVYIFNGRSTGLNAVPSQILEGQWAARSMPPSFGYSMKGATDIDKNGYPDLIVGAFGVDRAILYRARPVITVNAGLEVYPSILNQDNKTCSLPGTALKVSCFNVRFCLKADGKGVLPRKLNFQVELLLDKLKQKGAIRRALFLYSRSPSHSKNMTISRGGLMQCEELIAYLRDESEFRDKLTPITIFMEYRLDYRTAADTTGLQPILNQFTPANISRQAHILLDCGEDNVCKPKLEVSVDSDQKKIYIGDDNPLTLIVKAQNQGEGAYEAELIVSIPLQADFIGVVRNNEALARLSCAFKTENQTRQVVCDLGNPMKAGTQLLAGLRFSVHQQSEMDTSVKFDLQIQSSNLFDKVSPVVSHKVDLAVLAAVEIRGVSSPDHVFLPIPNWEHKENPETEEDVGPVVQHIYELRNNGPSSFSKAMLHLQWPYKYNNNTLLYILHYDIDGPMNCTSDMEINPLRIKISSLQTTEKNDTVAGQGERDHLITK
Sequence of human αvβ3 receptor (P06756 891-1048 limits assumed): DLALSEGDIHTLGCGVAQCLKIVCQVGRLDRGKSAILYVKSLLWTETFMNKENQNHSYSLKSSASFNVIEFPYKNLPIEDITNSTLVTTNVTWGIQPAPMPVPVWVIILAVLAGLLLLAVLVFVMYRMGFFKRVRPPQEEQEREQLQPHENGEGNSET
Sequence of human αvβ3 receptor (P05106 27-788): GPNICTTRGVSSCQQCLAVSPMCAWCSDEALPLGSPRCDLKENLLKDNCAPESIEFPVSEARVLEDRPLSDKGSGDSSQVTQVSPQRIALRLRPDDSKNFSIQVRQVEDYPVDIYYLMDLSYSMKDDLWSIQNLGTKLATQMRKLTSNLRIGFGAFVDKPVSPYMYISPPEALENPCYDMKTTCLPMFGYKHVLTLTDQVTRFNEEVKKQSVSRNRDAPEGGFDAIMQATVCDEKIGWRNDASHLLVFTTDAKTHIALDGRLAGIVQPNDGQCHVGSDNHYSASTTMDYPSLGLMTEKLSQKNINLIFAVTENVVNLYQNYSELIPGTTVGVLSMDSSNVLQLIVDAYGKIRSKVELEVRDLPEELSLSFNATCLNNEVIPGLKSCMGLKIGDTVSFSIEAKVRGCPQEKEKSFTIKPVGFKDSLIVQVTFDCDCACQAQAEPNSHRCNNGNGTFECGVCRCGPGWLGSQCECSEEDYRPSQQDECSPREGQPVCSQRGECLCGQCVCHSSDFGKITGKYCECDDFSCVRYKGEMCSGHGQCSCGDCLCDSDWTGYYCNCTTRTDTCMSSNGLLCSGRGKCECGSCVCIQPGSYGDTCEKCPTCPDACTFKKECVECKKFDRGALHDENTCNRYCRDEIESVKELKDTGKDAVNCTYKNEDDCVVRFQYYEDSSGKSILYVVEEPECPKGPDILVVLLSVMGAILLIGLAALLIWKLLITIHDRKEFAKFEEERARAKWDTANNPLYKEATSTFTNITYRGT

Point of comparison: `O=C(CCCOc1ccc(C[C@H](Nc2nc3ccccc3[nH]2)C(=O)O)cc1)NC1=NCCCN1` [Example 35, N-(1H-benzimidazol-2-yl)-O-[4-oxo-4-[(1,4,5,6-tetrahydro-2-pyrimidinyl)amino]butyl]-L-tyrosine], IC50 18 nM. Against it:
- O=C(CCCOc1ccc(C[C@H](Nc2nc3cccc(Br)c3s2)C(=O)O)cc1)NC1=NCCCN1 [Example 33, N-(7-bromo-2-benzothiazolyl)-O-[4-oxo-4-[(1,4,5,6-tetrahydro-2-pyrimidinyl)amino]butyl]-L-tyrosine] — 2.6-fold lower, 7 nM
- O=C(CCCOc1ccc(C[C@H](Nc2nc3ccc([N+](=O)[O-])cc3o2)C(=O)O)cc1)NC1=NCCCN1 [Example 22, N-(6-nitro-2-benzoxazolyl)-O-[4-oxo-4-[(1,4,5,6-tetrahydro-2-pyrimidinyl)amino]butyl]-L-tyrosine] — 2.2-fold lower, 8 nM
- O=C(CCCOc1ccc(C[C@H](Nc2nc3cc(Br)ccc3o2)C(=O)O)cc1)NC1=NCCCN1 [Example 18, N-(5-bromo-2-benzoxazolyl)-O-[4-oxo-4-[(1,4,5,6-tetrahydro-2-pyrimidinyl)amino]butyl]-L-tyrosine trifluoroacetate] — 1.6-fold lower, 11 nM
